The structures appear in SMILES notation. Active and inactive are the calls of the source. No cut-off for these calls is given here.

The target in series [1] is Cyclin-dependent kinases regulatory subunit 1/S-phase kinase-associated protein 2 (Homo sapiens, UniProt Q13309). As to the kind of experiment: Inhibition of GST-tagged SKP2 (unknown origin) binding to His6-tagged CKS1 (unknown origin) preincubated with SKP2 for 10 mins followed by CKS1 addition for 20 mins and measured after by HTRF method. It counts as protein assay.
Sequence of Cyclin-dependent kinases regulatory subunit 1/S-phase kinase-associated protein 2 (P61024 whole entry): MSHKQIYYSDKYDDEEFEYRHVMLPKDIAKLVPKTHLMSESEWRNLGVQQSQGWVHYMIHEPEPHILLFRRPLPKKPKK
Sequence of Cyclin-dependent kinases regulatory subunit 1/S-phase kinase-associated protein 2 (Q13309 whole entry): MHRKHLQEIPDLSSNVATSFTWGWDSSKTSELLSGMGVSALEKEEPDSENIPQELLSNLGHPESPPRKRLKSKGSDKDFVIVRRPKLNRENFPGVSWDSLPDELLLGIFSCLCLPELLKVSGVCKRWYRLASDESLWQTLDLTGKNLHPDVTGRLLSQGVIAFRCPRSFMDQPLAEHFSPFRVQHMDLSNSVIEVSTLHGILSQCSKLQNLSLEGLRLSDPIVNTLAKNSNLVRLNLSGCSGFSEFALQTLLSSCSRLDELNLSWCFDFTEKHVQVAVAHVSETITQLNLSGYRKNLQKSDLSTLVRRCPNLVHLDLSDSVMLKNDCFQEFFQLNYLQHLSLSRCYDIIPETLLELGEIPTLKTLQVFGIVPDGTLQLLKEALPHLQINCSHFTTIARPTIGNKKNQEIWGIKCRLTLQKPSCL

In series [2] the test system is MGC-803. As to the kind of experiment: Inhibition of cell proliferation in human MGC-803 cells incubated for 24 to 72 hrs by MTT assay. The class given is functional, cell-based. Particulars: dose 2-50 µM, time 24-72 hrs.
Series [3] has as its system PC-3. As to the kind of experiment: Inhibition of colony formation in human PC-3 cells incubated for 10 days by crystal violet staining based inverted microscopic analysis. Particulars: dose 1-3 µM, time 10.0 day. The class given is functional, cell-based.
Series [4] concerns MGC-803. Nature of the series: Inhibition of colony formation in human MGC-803 cells at 3 uM incubated for 10 days by crystal violet staining based inverted microscopic analysis. Particulars: time 10.0 day. The class given is functional, cell-based.
The subject of series [5] is PC-3. Nature of the series: Induction of cell cycle arrest in human PC-3 cells assessed as cells at G0/G1 phase at 7.5 uM incubated for 36 hrs by PI staining based flow cytometry (reference value: 54.5%). The class given is functional.
Series [6] has as its system PC-3. As to the kind of experiment: Induction of cell cycle arrest in human PC-3 cells assessed as cells at S phase at 7.5 uM incubated for 36 hrs by PI staining based flow cytometry (reference value: 22.8%). The class given is functional.
Series [7] concerns PC-3. Nature of the series: Induction of cell cycle arrest in human PC-3 cells assessed as cells at G0/G1 phase at 15 uM incubated for 6 hrs by PI staining based flow cytometry (reference value: 55.1%). The class given is functional.
Series [8] has as its system PC-3. As to the kind of experiment: Induction of cell cycle arrest in human PC-3 cells assessed as cells at G0/G1 phase at 15 uM incubated for 24 hrs by PI staining based flow cytometry (reference value: 55.1%). The class given is functional.
For series [9], the system named is PC-3. Nature of the series: Induction of cell cycle arrest in human PC-3 cells assessed as cells at S phase at 15 uM incubated for 24 hrs by PI staining based flow cytometry (reference value: 22.9%). It counts as functional.
Series [10] relates to PC-3. As to the kind of experiment: Induction of cell cycle arrest in human PC-3 cells assessed as cells at G2/M phase at 15 uM incubated for 48 hrs by PI staining based flow cytometry (reference value: 21.4%). The class given is functional.
The subject of series [11] is MGC-803. Nature of the series: Induction of cell cycle arrest in human MGC-803 cells assessed as cells at G0/G1 phase at 15 uM incubated for 6 hrs by PI staining based flow cytometry (reference value: 57.9%). The class given is functional.
Series [12] relates to MGC-803. Nature of the series: Induction of cell cycle arrest in human MGC-803 cells assessed as cells at S phase at 15 uM incubated for 12 hrs by PI staining based flow cytometry (reference value: 19.6%). The class given is functional.
Series [13] relates to MGC-803. As to the kind of experiment: Induction of cell cycle arrest in human MGC-803 cells assessed as cells at G2/M phase at 15 uM incubated for 12 hrs by PI staining based flow cytometry (reference value: 20.8%). It counts as functional.
Series [14] relates to MGC-803. Nature of the series: Induction of cell cycle arrest in human MGC-803 cells assessed as cells at G0/G1 phase at 15 uM incubated for 48 hrs by PI staining based flow cytometry (reference value: 57.9%). The class given is functional.
Series [15] has as its system MGC-803. Nature of the series: Upregulation of p27 protein expression in human MGC-803 cells at 5 to 15 uM incubated for 48 hrs by Western blotting analysis. It counts as functional, cell-based. Particulars: dose 5-15 µM.
Series [16] deals with PC-3. As to the kind of experiment: Upregulation of p21 protein expression in human PC-3 cells at 15 uM by Western blotting analysis. The class given is functional, cell-based. Particulars: time 6-48 hrs, TDE = time-dependent effect.
Series [17] in a line: MRT(infinity) in Sprague-Dawley rat at 1 mg/kg, iv measured upto 24 hrs by LC/MS-MS analysis. The class given is ADME, organism-based. Particulars: in vivo.
A short description of series [18]: AUClast in Sprague-Dawley rat at 50 mg/kg, po measured upto 24 hrs by LC/MS-MS analysis. The class given is ADME, organism-based. Particulars: in vivo.

In turn, `COc1ccc(-c2cc(C)nc3nc(SCc4ccc(Br)cc4)nn23)c(OC)c1` displayed an IC50 in series [1] of 4.86 µM. The inhibition entry with MGC-803 [2] and with PC-3 [3] was “Dose-Dependent Effect” throughout. Besides, in the series with MGC-803 [4], the inhibition result was “Active”. Also, the Activity is 39% in the series with PC-3 [5]; 37.2% in the series with PC-3 [6]; 52.8% with PC-3 [7]; 39.3% in the series on PC-3 [8]; 38.6% in the series on PC-3 [9]; 22.5% with PC-3 [10]. Further, the Activity was 49.7% with MGC-803 [11]; 31.2% in the series on MGC-803 [12]; 21.6% in the series on MGC-803 [13]; 40.9% with MGC-803 [14]; “Tde” in the series on PC-3 [16]. The result in the series on MGC-803 [15] was Active. The MRT in series [17] turned out to be 6.28 h. In series [18], the AUC(0-t) at 24 h stood at 906 ng·h/mL.

The values are drawn from ChEMBL document CHEMBL5579901, “Discovery of Novel [1,2,4]Triazolo[1,5-a]pyrimidine Derivatives as Novel Potent S-Phase Kinase-Associated Protein 2 (SKP2) Inhibitors for the Treatment of Cancer” (J Med Chem, 2024).
